We go through eight compounds from ChEMBL document CHEMBL1201862, “PubChem BioAssay data set” (2004).

Holding throughout (assay): NCI tumour cell line growth inhibition, 48 h
Assay [1] has as its system HOP-62.
The subject of assay [2] is SK-MEL-28.
Assay [3] relates to UACC-62.
Assay [4] relates to NCI/ADR-RES.
Assay [5] concerns HCT-15.
The test system of assay [6] is U-251.
In assay [7] the test system is Hs-578T.
Assay [8] deals with NCI-H460.
Assay [9] deals with DU-145.
Assay [10] has as its system RXF 393.
For assay [11], the system named is SF-539.
Assay [12] deals with CCRF-CEM.
The test system of assay [13] is M14.
Assay [14] relates to SR.
The test system of assay [15] is MCF7.
In assay [16] the test system is 786-0.
Assay [17] has as its system MOLT-4.
In assay [18] the test system is SK-MEL-5.
Assay [19] has as its system KM12.
Assay [20] deals with UO-31.

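Interpolation was linear, between the two tested concentrations surrounding the appropriate level; five concentrations were tested over 48 hours in 96-well plates. Abbreviation: GI50, concentration required for 50% inhibition of growth.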 Activity calls are given as the source filed them. Rule as the data show it: active = GI50 up to about 1.1 µM and inactive = higher. Some results are limits rather than exact numbers.

Consider `O=C(O)c1nc2nc(Cl)c(Cl)nc2[nH]1`, for which the GI50 in assay [1] is > 100 µM (inactive); in assay [2], > 100 µM (inactive); in [3], > 100 µM (inactive); in assay [4], > 100 µM (inactive); in [5], more than 100 µM; in assay [6], > 100 µM (inactive). For the same compound, the GI50 in assay [7], in assay [8], in [9], in assay [10], in assay [11] and in [12] was > 100 µM (inactive) throughout. The GI50 in assay [13], in assay [14], in assay [15], in [16], in [17] and in [18] was > 100 µM (inactive) throughout. In addition, the GI50 in assay [19] was > 100 µM (inactive).

As to `O=C1CCC(Cc2ccc(Cl)cc2Cl)C(=O)N1` (configuration not stated), the GI50 in assay [1] was > 100 µM (inactive); in [2], > 100 µM (inactive); in assay [3] it was > 100 µM (inactive); in [4], > 100 µM (inactive); in [5], 82.8 µM; in [6] it was > 100 µM (inactive). The GI50 in [7] was 81.5 µM (inactive); in assay [8] it was > 100 µM (inactive); in assay [9], > 100 µM (inactive); in [20] it was 83.6 µM (inactive); in assay [10] it was 32 µM (inactive); in [11] it was > 100 µM (inactive). Further, the GI50 is > 100 µM (inactive) in [12]; > 100 µM (inactive) in [13]; > 100 µM (inactive) in [14]; > 100 µM (inactive) in [15]; > 100 µM (inactive) in assay [16]; 59.7 µM (inactive) in [17]. Also, the GI50 in assay [18] is > 100 µM (inactive).

With `Cc1sc(NC=C2C(=O)CC(C)(C)CC2=O)nc1-c1ccccc1`, the GI50 in [1] is > 100 µM (inactive); in [2] it was > 100 µM (inactive); in assay [3], > 100 µM (inactive); in assay [4], > 100 µM (inactive); in [5], more than 100 µM; in [6], > 100 µM (inactive). Also, the GI50 in assay [7], in assay [8], in assay [9], in assay [20], in assay [10] and in assay [11] was > 100 µM (inactive) in each case. Further, the GI50 is 72.6 µM (inactive) in assay [12]; > 100 µM (inactive) in [13]; > 100 µM (inactive) in assay [14]; > 100 µM (inactive) in assay [15]; > 100 µM (inactive) in [16]; > 100 µM (inactive) in [17]. Also, the GI50 in assay [18] and in assay [19] was > 100 µM (inactive) in each case.

As for `CC1CC(NN(C)C)C2(C(N)=O)C(N)=NC(=O)C12C#N` (configuration not stated), the GI50 in [1] is > 100 µM (inactive); in [2], > 100 µM (inactive); in assay [3] it was > 100 µM (inactive); in [4], > 100 µM (inactive); in assay [5], more than 100 µM; in assay [6], > 100 µM (inactive). Moreover, the GI50 in [7], in [9], in [20], in assay [10], in [11] and in assay [12] was > 100 µM (inactive) in each case. In addition, the GI50 in assay [13], in [14], in [15], in assay [16], in assay [17] and in assay [18] was > 100 µM (inactive) throughout. Besides, the GI50 in assay [19] is > 100 µM (inactive).

`O=C(OC1CN2CCC1CC2)N(c1ccccc1)c1ccccc1` (configuration not stated): the GI50 is 80.5 µM (inactive) in assay [1]; 80.5 µM (inactive) in assay [2]; 65 µM (inactive) in assay [3]; > 100 µM (inactive) in [4]; more than 100 µM in [5]; > 100 µM (inactive) in assay [6]. Further, the GI50 in [7] was > 100 µM (inactive); in assay [9], > 100 µM (inactive); in assay [20], 86.9 µM (inactive); in assay [10], 50.1 µM (inactive); in [11], 68.4 µM (inactive); in assay [12], 54.7 µM (inactive). The GI50 was 22.9 µM (inactive) in assay [13]; 4.61 µM (inactive) in assay [14]; 74.8 µM (inactive) in assay [15]; > 100 µM (inactive) in assay [16]; 43.1 µM (inactive) in assay [17]; 29.4 µM (inactive) in [18].

Take `CN1CCc2c3n(c4cc(Br)ccc24)[C@H](O)CCCC31` (some centres not stated): the GI50 is > 10 µM (inactive) in assay [1]; 1.72 µM (inactive) in assay [2]; 4.97 µM (inactive) in assay [4]; 2.62 µM in assay [5]; 1.85 µM (inactive) in assay [6]; 2.15 µM (inactive) in [7]. Further, the GI50 in assay [8] was 1.6 µM (inactive); in [9] it was > 10 µM (inactive); in assay [20], > 7.52 µM (inactive); in [10] it was 2.59 µM (inactive); in [11], 1.9 µM (inactive); in assay [12] it was 1.87 µM (inactive). Also, the GI50 in assay [13] is 1.79 µM (inactive); in assay [14], 1.93 µM (inactive); in assay [15] it was 1.78 µM (inactive); in assay [16], 1.7 µM (inactive); in assay [17], 1.95 µM (inactive); in assay [18] it was 3.18 µM (inactive). Moreover, the GI50 in [19] is 2.38 µM (inactive).

For `O=S(=O)(O)c1ccc2c(/N=N/c3c(O)ccc4ccccc34)cccc2c1`, the GI50 in assay [1] is > 100 µM (inactive); in assay [2] it was > 100 µM (inactive); in assay [3] it was > 100 µM (inactive); in assay [4] it was > 100 µM (inactive); in assay [5] it was more than 100 µM; in assay [6] it was > 100 µM (inactive). In addition, the GI50 in assay [7], in assay [8], in assay [9], in [20], in assay [10] and in [11] was > 100 µM (inactive) throughout. In addition, the GI50 in assay [12] is 70.6 µM (inactive); in [13] it was > 100 µM (inactive); in assay [14], > 100 µM (inactive); in [15] it was > 100 µM (inactive); in [16] it was > 100 µM (inactive); in assay [18], > 100 µM (inactive). Also, the GI50 in assay [19] is > 100 µM (inactive).

As to `COc1cc(-c2cc(=O)c3c(OC)c(OC)c(OC)c(OC)c3o2)cc(OC)c1OC` [HEPATAMETHOXYFLAVONE], the GI50 in assay [1] is 41.9 µM (inactive); in [2], 53.2 µM (inactive); in assay [3] it was 21 µM (inactive); in assay [4] it was 23.6 µM (inactive); in [5], 33.4 µM; in assay [6] it was 40.1 µM (inactive). Besides, the GI50 is 29 µM (inactive) in [7]; 42.3 µM (inactive) in assay [8]; 45.5 µM (inactive) in [9]; 7.38 µM (inactive) in [20]; 28.1 µM (inactive) in assay [10]; > 100 µM (inactive) in [11]. The GI50 in assay [12] is 30.5 µM (inactive); in [13], 45.7 µM (inactive); in assay [14], > 100 µM (inactive); in [15], 84.3 µM (inactive); in [16], 58.9 µM (inactive); in assay [17], 24.9 µM (inactive). Further, the GI50 in assay [18] was 12.4 µM (inactive).
